By mortality is commonly meant the percentage killed. As a reminder, the clearance is a measure of how efficiently the substance is removed, as volume per time. Usually half-life stands for the time needed for the level to fall by half in the phase considered. Read a high half-life as slow decline. One may read the AUC as concentration integrated over time. By Cmax is commonly meant the highest concentration seen after dosing. What is called Tmax is the time from dosing to the highest level. By bioavailability is commonly meant the share of a dose that reaches the circulation, judged against a reference dose that is usually intravenous. Higher therefore signals much systemic uptake.

The test system of data set [1] is Diamondback moth. Nature of the data set: Killing efficacy test against agricultural pests: diamondback moth test (leaf dip). In kind it is in vivo. Particulars: Plutella xylostella, foliar, 72 h, read-out: Corrected Mortality Rate (%). Here is the method:
(§1) Solution preparation: 2 mg of a test compound was weighed and dissolved in 200 µL of acetone, and the sample was diluted with an aqueous solution containing 0.1% Tween 80 to a required concentration to obtain a test solution. 1. Diamondback moth test: The test sample was prepared into solutions with final concentrations of 0.0156 mg/L, 0.125 mg/L, and 1 mg/L. Fresh and clean rapeseed leaves were cut into small pieces of 3 cm × 3 cm. The leaf pieces were immersed in the solutions with different concentrations for 10s, taken out, and air-dried naturally. The treated leaf pieces were placed into Petri dishes lined with moistened filter paper. 20 third-instar larvae of the diamondback moth were introduced into each Petri dish. The Petri dishes were placed in a constant-temperature room, and mortality rates were checked after 72 h. 2. Aphid test: The test sample was prepared into solutions with final concentrations of 2 mg/L, 10 mg/L, and 50 mg/L. Fresh cotton leaves of uniform size were immersed in the solutions with different concentrations for 10s, air-dried, and placed backside up on culture plates. 100 wingless adult aphids were introduced into each culture plate. The culture plates were sealed with paper strips and placed in a constant-temperature room. Mortality rates were checked after 72 h. 3. Mite test: The test sample was prepared into solutions with final concentrations of 0.02 mg/L, 0.2 mg/L, and 2 mg/L. Filter paper treated with the test solutions was placed in Petri dishes, and about 30 mites were placed at the center of each Petri dish. 0.05 g of mite feed was added to the center of each Petri dish after 30 min. The Petri dishes were placed in a constant-temperature room, and mortality rates were checked after 72 h. 4. Borer test: The test sample was prepared into solutions with final concentrations of 0.125 mg/L, 0.5 mg/L, and 2 mg/L. Fresh leaves were cut, immersed in the solutions with different concentrations for 10s, taken out, and air-dried. The treated leaves were placed in Petri dishes, and 30 borer larvae were introduced into each Petri dish. The Petri dishes were placed in a constant-temperature room, and mortality rates were checked after 72 h.

In data set [2] the test system is Aphid. Nature of the data set: Killing efficacy test against agricultural pests: aphid test (leaf dip). It counts as in vivo, aphids. The settings on record: after 72 h. On the procedure:
as §1

The test system of data set [3] is Mite. As to the kind of experiment: Killing efficacy test against agricultural pests: mite test (treated filter paper). The settings on record: after 72 h. In kind it is in vivo, mites. On the procedure: as §1
Data set [4] has as its system Borer. Nature of the data set: Killing efficacy test against agricultural pests: borer test (leaf dip). In kind it is in vivo. Particulars: after 72 h. On the procedure: as §1
Data set [5] can be described thus: In vivo pharmacokinetic evaluation in mice. More on the design: species or system ICR mice. Particulars: ICR, mouse, plasma; for AUC: read-out: AUC^1-24 h. Here is the method: 1. Drug preparation: 5% DMSO + 10% macrogol 15 hydroxystearate (BASF) + 85% saline (where drug solutions have a final concentration of 1.2 mg/mL for the IV group and 3 mg/mL for the PO group). 2. Experimental animals: Each group included three mice (ICR mice, SPF grade). 3. Administration method: The body weight was measured before administration, and the dose was calculated according to the body weight. The mice were administered through intravenous injection or oral gavage. 4. Blood collection: After administration, blood samples were collected in 0.083 h, 0.25 h, 0.5 h, 1 h, 2 h, 4 h, 6 h, 8 h, and 24 h. The blood samples were collected via the cheek. Each sample included about 0.05 mL of blood anticoagulated with EDTA-2K. The blood samples were placed on wet ice after collection. 5. Sample treatment: The blood samples were placed on ice after collection and centrifuged within 1 h to obtain plasma (centrifugation conditions: 6000 g, 3 min, 2-8°C). Plasma samples were stored in a -80°C refrigerator before analysis. 6. Data processing: Pharmacokinetic parameters were calculated using Phoenix WinNonlin 8.2.0 based on plasma concentration data at different time points.

Data set [6] relates to mites. Nature of the data set: Mite killing efficacy test with an in vitro model. The procedure, abridged:
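Groups of 17–26 live mites were exposed 5 min at normal temperature to drug in 3% DMSO/97% water (target final 30 µM), then air-dried ~1 h. Dead/total mites were counted at 1–24 h after dosing at room temperature and high humidity. Mortality was scored ≥90% "+++", 50–90% "++", <50% "+".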

Where two headings read alike, the source gives them in different places.

As for `Cc1cc(C2=NO[C@@](c3cc(Cl)cc(Cl)c3)(C(F)(F)F)C2)ccc1C(=O)NCC(=O)NC1(C(F)(F)F)CC1` [Example 011, (S)-4-(5-(3,5-dichlorophenyl)-5-(trifluoromethyl)-4,5-dihydroisoxazol-3-yl)-2-methyl-N-(2-oxo-2-((1-(trifluoromethyl)cyclopropyl)amino)ethyl)benzamide], in data set [1], the mortality at 0.0156 µg/mL was determined as 0%. Besides, the mortality at 0.125 µg/mL in data set [1] is 100%. Further, the mortality at 1 µg/mL in data set [1] was 100%. For the same molecule, the “Corrected Mortality Rate (%)” value in data set [2] (2 mg/L) was found to be 60%; in data set [2] (10 mg/L) it was 100%; in data set [2] (50 mg/L) it was 100%; in data set [3] (0.02 mg/L), 34%; in data set [3] (0.2 mg/L), 86%; in data set [3] (2 mg/L), 100%. For the same molecule, the “Corrected Mortality Rate (%)” value worked out at 29% in data set [4] (0.125 mg/L), 93% in data set [4] (0.5 mg/L) and 100% in data set [4] (2 mg/L). The molecule further had a clearance in data set [5] (IV (6 mg/kg)) of 1.18 mL/min/kg. For the same molecule, the half-life in data set [5] (IV (6 mg/kg)) was 1200 min; in data set [5] (PO (30 mg/kg)), 1670 min. Besides, the AUC in data set [5] (IV (6 mg/kg)) was determined as 48.9 µg·h/mL; in data set [5] (PO (30 mg/kg)), 231 µg·h/mL. Moreover, the C0 in data set [5] (IV (6 mg/kg), read-out: C0) is 6800 ng/mL. The Cmax in data set [5] (PO (30 mg/kg), read-out: Cmax) is 15900 ng/mL. In data set [5] (PO (30 mg/kg), read-out: Tmax), the Tmax came to 2.67 h. In addition, the Vd in data set [5] (in vivo, IV (6 mg/kg), read-out: Vss) came to 1.96 L/kg. In addition, the bioavailability in data set [5] (PO (30 mg/kg) vs IV (6 mg/kg)) is 94.6%. Besides, the mortality at 30 µM in data set [6] (4 h, read-out: Mite Mortality Rate 4 h) is over 90%; in data set [6] (24 h, read-out: Mite Mortality Rate 24 h), over 90%.

These data come from EP4741380A1, “ISOXAZOLINE COMPOUND AND USE” (priority 2024, dated 2025).
